Several values for one entry are separate records, joined by “and”; a condition that tells them apart may be missing. Equal values may be shown once. Inconclusive results and toxic doses are left out.
Tested on: AKR/Lw mice, AKR lymphoma ip, median survival T/C
Assay: NCI In Vivo Anticancer Drug Screen. Data for tumor model Lymphoma AKR (Transplanted) (intraperitoneal) in AKR/Lw mice
Settings: endpoint: median survival time, higher = longer survival
Description: The antitumor activity of compounds was measured in mice bearing transplantable tumors. Survival or tumor size were measured and the results are expressed as the measurement made in the treated group (T) divided by the measurement made in the vehicle treated control group (C). The tumor model used in this assay is Lymphoma AKR (Transplanted) (intraperitoneal) in AKR/Lw mice

[1] = dose: 100.0 mg/kg/injection, schedule: Q01DX001 (ip), vehicle: Klucel (hydroxypropylcellulose) (HPC)
[2] = dose: 200.0 mg/kg/injection, schedule: Q01DX001 (ip), vehicle: Klucel (hydroxypropylcellulose) (HPC)
[3] = dose: 400.0 mg/kg/injection, schedule: Q01DX001 (ip), vehicle: Klucel (hydroxypropylcellulose) (HPC)
[4] = dose: 200.0 mg/kg/injection, schedule: Q04DX003 (ip), vehicle: Klucel (hydroxypropylcellulose) (HPC)
[5] = dose: 200.0 mg/kg/injection, schedule: Q01DX001 (ip), vehicle: saline
[6] = dose: 400.0 mg/kg/injection, schedule: Q01DX001 (ip), vehicle: saline
[7] = dose: 100.0 mg/kg/injection, schedule: Q01DX001 (ip), vehicle: saline

C1CN1c1nc(N2CC2)nc(N2CC2)n1
T/C (dose: 0.01 mg/kg/injection, schedule: Q04DX003 (ip), vehicle: saline): 102 % of control | T/C (dose: 0.02 mg/kg/injection, schedule: Q01DX009 (ip), vehicle: saline): 115 % of control | T/C (dose: 0.02 mg/kg/injection, schedule: Q04DX003 (ip), vehicle: saline): 111 % of control | T/C (dose: 0.03 mg/kg/injection, schedule: Q01DX009 (ip), vehicle: saline): 109 % of control | T/C (dose: 0.03 mg/kg/injection, schedule: Q04DX003 (ip), vehicle: saline): 86 % of control and 102 % of control | T/C (dose: 0.05 mg/kg/injection, schedule: Q01DX009 (ip), vehicle: saline): 115 % of control | T/C (dose: 0.05 mg/kg/injection, schedule: Q04DX003 (ip), vehicle: saline): 100 % of control | T/C (dose: 0.06 mg/kg/injection, schedule: Q01DX009 (ip), vehicle: saline): 101 % of control and 109 % of control | T/C (dose: 0.06 mg/kg/injection, schedule: Q04DX003 (ip), vehicle: saline): 93 % of control and 97 % of control and 107 % of control | T/C (dose: 0.1 mg/kg/injection, schedule: Q04DX003 (ip), vehicle: saline): 113 % of control | T/C (dose: 0.12 mg/kg/injection, schedule: Q01DX001 (ip), vehicle: saline): 106 % of control | T/C (dose: 0.2 mg/kg/injection, schedule: Q04DX003 (ip), vehicle: saline): 115 % of control and 122 % of control | T/C (dose: 0.25 mg/kg/injection, schedule: Q01DX001 (ip), vehicle: saline): 106 % of control and 111 % of control | T/C (dose: 0.3 mg/kg/injection, schedule: Q04DX003 (ip), vehicle: saline): 121 % of control | T/C (dose: 0.35 mg/kg/injection, schedule: Q04DX003 (ip), vehicle: saline): 120 % of control | T/C (dose: 0.37 mg/kg/injection, schedule: Q01DX001 (ip), vehicle: saline): 105 % of control | T/C (dose: 0.6 mg/kg/injection, schedule: Q01DX009 (ip), vehicle: saline): 116 % of control | T/C (dose: 0.75 mg/kg/injection, schedule: Q01DX001 (ip), vehicle: saline): 105 % of control and 115 % of control | T/C (dose: 0.8 mg/kg/injection, schedule: Q04DX003 (ip), vehicle: saline): 188 % of control | T/C (dose: 1.2 mg/kg/injection, schedule: Q01DX009 (ip), vehicle: saline): 93 % of control | T/C (dose: 1.5 mg/kg/injection, schedule: Q01DX001 (ip), vehicle: saline): 123 % of control | T/C (dose: 2.5 mg/kg/injection, schedule: Q01DX009 (ip), vehicle: saline): 93 % of control | T/C (dose: 15.0 micrograms/kg/injection, schedule: Q01DX009 (ip), vehicle: saline): 113 % of control | T/C (dose: 25.0 micrograms/kg/injection, schedule: Q01DX009 (ip), vehicle: saline): 102 % of control | T/C (dose: 30.0 micrograms/kg/injection, schedule: Q01DX009 (ip), vehicle: saline): 115 % of control | T/C (dose: 50.0 micrograms/kg/injection, schedule: Q01DX009 (ip), vehicle: saline): 111 % of control | T/C (dose: 100.0 micrograms/kg/injection, schedule: Q01DX009 (ip), vehicle: saline): 116 % of control | T/C (dose: 120.0 micrograms/kg/injection, schedule: Q01DX009 (ip), vehicle: saline): 107 % of control | T/C (dose: 250.0 micrograms/kg/injection, schedule: Q01DX009 (ip), vehicle: saline): 105 % of control

O=C(Nc1ccccc1)Oc1ccc(Cl)cc1
T/C [1]: 100 % of control | T/C [2]: 100 % of control | T/C [3]: 106 % of control

C/C=C(/C)N(C(C)=O)N(C(C)=O)c1ccc([N+](=O)[O-])cc1[N+](=O)[O-]
T/C [1]: 93 % of control | T/C [2]: 93 % of control | T/C [4]: 93 % of control | T/C [3]: 93 % of control

CC(=O)CC(=O)c1ccccc1
T/C [1]: 106 % of control | T/C [2]: 106 % of control | T/C [3]: 103 % of control

COc1cccc2c1C(=O)c1c(O)c3c(c(O)c1C2=O)C[C@@](O)(C(=O)CO)C[C@@H]3OC1CC(N)C(O)C(C)O1 (some centres not stated)
T/C (dose: 0.12 mg/kg/injection, schedule: Q01DX006 (sc), vehicle: saline): 110 % of control | T/C (dose: 0.25 mg/kg/injection, schedule: Q01DX006 (ip), vehicle: saline): 107 % of control | T/C (dose: 0.25 mg/kg/injection, schedule: Q01DX006 (sc), vehicle: saline): 97 % of control | T/C (dose: 0.5 mg/kg/injection, schedule: Q01DX006 (ip), vehicle: saline): 115 % of control | T/C (dose: 0.5 mg/kg/injection, schedule: Q01DX006 (sc), vehicle: saline): 109 % of control (2×) and 110 % of control | T/C (dose: 0.5 mg/kg/injection, schedule: Q04DX003 (sc), vehicle: saline): 105 % of control | T/C (dose: 0.9 mg/kg/injection, schedule: Q04DX003 (sc), vehicle: saline): 105 % of control | T/C (dose: 1.0 mg/kg/injection, schedule: Q01DX006 (ip), vehicle: saline): 115 % of control | T/C (dose: 1.0 mg/kg/injection, schedule: Q01DX006 (sc), vehicle: saline): 117 % of control | T/C (dose: 1.5 mg/kg/injection, schedule: Q01DX006 (sc), vehicle: saline): 110 % of control and 114 % of control (2×) | T/C (dose: 2.6 mg/kg/injection, schedule: Q04DX003 (sc), vehicle: saline): 97 % of control

CCOc1ccc2nc(N)sc2c1
T/C [1]: 89 % of control | T/C [2]: 92 % of control

CCOC(=O)CCCSCCCC(=O)OCC
T/C [5]: 89 % of control | T/C [6]: 95 % of control

c1ccc2c(c1)OCCOCCOc1ccccc1OCCOCCO2
T/C [7]: 107 % of control | T/C [5]: 123 % of control | T/C [6]: 103 % of control

CCn1c(O)c(C=N)c(=O)[nH]c1=O
T/C (dose: 50.0 mg/kg/injection, schedule: Q01DX001 (ip), vehicle: saline): 102 % of control | T/C (dose: 50.0 mg/kg/injection, schedule: Q04DX003 (ip), vehicle: Klucel (hydroxypropylcellulose) (HPC)): 87 % of control | T/C [7]: 94 % of control | T/C [5]: 94 % of control | T/C [4]: 93 % of control

From PubChem BioAssay AID190 (DTP/NCI, 2004)
